pIC50: −log10 of the molar value. Structures can show the parent of a compound that is named as a salt. Where two headings read alike, the source gives them in different places.
Tests used:
[1] = test system: metrazol-induced clonic convulsions; experiment: Suppression of metrazol-induced convulsions in adult male mice; assay type: in vivo, Male CD1 mice; details: Mus musculus, block of clonic convulsions after s.c. CD90 dose of metrazol
Experimental: Assay to Determine the Suppression of Metrazol-Induced Convulsions in Adult Male Mice
Compounds of the invention were tested for their ability to reduce metrazol-induced convulsions in mice (Swinyard, E. A. J. Am. Pharm Assoc. 1949, 38, 201). Male CD1 mice, were fasted at least 16 hours, were divided into equal groups and test compounds or vehicle were administered parenterally. Water was not withheld except during the period of observations. At the time of suspected peak activity, anti-pentylenetetrazol (anti-metrazol) activity was evaluated by the subcutaneous administration of the CD90 dose of metrazol (the dose of metrazol was determined from the dose-response curve producing clonic convulsions in 90% of animals that received the corresponding vehicle for this experiment). Metrazol was dissolved in 0.9% sodium chloride solution, and its dose volume was 10 mL/kg. Animals were housed individually for observation of clonic convulsions, tonic convulsions and death for a period of 30 min. Test compounds that blocked the clonic seizure component of the convulsion in at least 50% of the animals were considered active. The biological assay was considered to be valid if the effects of a known anticonvulsant (positive control) were detected, within the same experiment. Activity was reported as percent reduction of clonic convulsions from the vehicle group. The ED50 values of active compounds were calculated by the method of probits (Finney, D. J. Probit Analysis, London: 1971, Cambridge University Press) and are listed in Table 1. […] Compounds active in this screen are considered active anticonvulsion/antiepileptic agents, as well as having potential anxiolytic activity. The data for the test compounds is listed in Table 1 as Met. for either PO (oral) or IP (parenteral) routes of administration.

[2] = target: benzodiazepine site of the GABA-A receptor; experiment: Benzodiazepine receptor binding assay (inhibition of 3H-flunitrazepam binding to membranes); details: inhibition of 3H-flunitrazepam (ca. 3 nM) binding; over 10,000 = not active
[3] = test system: behavior suppressed by punishment (conflict); experiment: Suppression of anxiety in the adult male rat (Vogel conflict test); assay type: in vivo, Male rats; details: PO (oral) administration, MED >10 = active dose not determined, read-out: Conf. PO (minimum effective dose, MED)
Experimental: Assay to Measure the Suppression of Anxiety in the Adult Male Rat
The anxiolytic activity of selected compounds of the invention was assessed by determining their ability to release (disinhibit) behavior that had been suppressed by punishment (Vogel, J. R. et al. Psychopharmacology 1971, 21, 1). Male rats were deprived of water for 48 hrs and were deprived of food for 24 hrs prior to testing. After the first 24 hours of water deprivation, they were placed in the conflict chamber for a training period; wherein, they were allowed 200 unpunished licks from a bottle containing tap water. The experiment was run the next day. At the expected time of peak activity, the animals were placed in the chamber and allowed access to tap water. […] Their first lick initiates a 3-min test session. Subsequently, every 20th lick was punished by a 0.2-s shock delivered via the stainless-steel drinking-tube. Vehicle-treated control animals generally were willing to accept a median number of 3 to 8 shocks per test session. […] The Wilcoxon rank-sum test (Mann-Whitney U-test) was used to test for an increase (p<0.05, 1-tailed) in the median number of shocks in drug-treated groups, compared to a concurrently run vehicle-treated group. The biological assay is considered to be valid if the effects of a known anxiolytic (positive control) are detected, within the same experiment. A compound was considered active if there is a significant difference in the median number of shocks tolerated between the drug-treated group and the control group. The minimum effective doses (MED) for the active compounds of the invention are listed in Table 1 under the heading Conf., with PO indicating an oral route of administration. The MED was defined as the minimum dose of the drug-treatment as analyzed using the Wilcoxon rank-sum test (SAS; Statistical Analysis System, version 5.16). If the MED value is greater than 10, an active dose of the compound being tested had not been determined.

[4] = IP (parenteral) administration, read-out: Met. IP (ED50)
[5] = PO (oral) administration, read-out: Met. PO (ED50)

Compound | melting point | ED50 [1, 4] | ED50 [1, 5] | pIC50 [2] | minimal effective dose [3]
O=C1CCN2C(=C1C(=O)Nc1c(F)cccc1F)Nc1c(N3CCCCC3)cccc12 (as salt: hydrochloride) [Compound 10, Pyrido[1,2-a]benzimidazole-4-carboxamide, N-(2,6-difluorophenyl)-1,2,3,5-tetrahydro-3-oxo-6-(1-piperidinyl)-] | 240 to 241 °C |  |  |  | 
O=C1CCN2C(=C1C(=O)Nc1c(F)cccc1F)Nc1c2cccc1-n1ccnc1 [Compound 1] |  | ≤ 1 mg/kg | ~10 mg/kg | 9.18 | 
O=C1CCN2C(=C1C(=O)Nc1ccccc1F)Nc1c2cccc1-n1ccnc1 [Compound 2, Pyrido[1,2-a]benzimidazole-4-carboxamide, N-2-fluorophenyl-1,2,3,5-tetrahydro-3-oxo-6-(1-imidazolyl)-] |  | 1 mg/kg | ~5 mg/kg | 8.46 | > 10 mg/kg
O=C1CCN2C(=C1C(=O)Nc1ccccc1F)Nc1c(N3CCOCC3)cccc12 [Compound 3] |  | > 1 mg/kg | 3 mg/kg | 8.98 | > 10 mg/kg
O=C1CCN2C(=C1C(=O)Nc1c(F)cccc1F)Nc1c(N3CCOCC3)cccc12 [Compound 4] |  | < 1 mg/kg | < 3 mg/kg | 9.64 | ~0.1 mg/kg
COc1ccccc1N1CCN(c2cccc3c2NC2=C(C(=O)Nc4c(F)cccc4F)C(=O)CCN23)CC1 [Compound 5] |  |  |  | > 7.00 | > 10 mg/kg
COc1ccccc1N1CCN(c2cccc3c2NC2=C(C(=O)Nc4ccccc4F)C(=O)CCN23)CC1 [Compound 6] |  |  |  | ~6.00 | > 10 mg/kg
COc1ccc(NC(=O)C2=C3Nc4c(N5CCOCC5)cccc4N3CCC2=O)cc1 [Compound 7] |  |  |  | 8.69 | 0.1 mg/kg
COc1cccc(NC(=O)C2=C3Nc4c(N5CCOCC5)cccc4N3CCC2=O)c1 [Compound 8] |  |  |  | 8.62 | > 10 mg/kg
O=C1CCN2C(=C1C(=O)Nc1ccccc1F)Nc1c(N3CCCCC3)cccc12 [Compound 9] |  |  |  | 7.16 | ≤ 3 mg/kg
O=C1CCN2C(=C1C(=O)Nc1c(F)cccc1F)Nc1c(N3CCCCC3)cccc12 [Compound 10, Pyrido[1,2-a]benzimidazole-4-carboxamide, N-(2,6-difluorophenyl)-1,2,3,5-tetrahydro-3-oxo-6-(1-piperidinyl)-] |  |  | 3.64 mg/kg | 9.39 | 3 mg/kg
COc1ccc(NC(=O)C2=C3Nc4c(N5CCCCC5)cccc4N3CCC2=O)cc1 [Compound 11] |  |  |  | 7.46 | > 3 mg/kg
CN1C2=C(C(=O)Nc3ccccc3F)C(=O)CCN2c2cccc(N3CCOCC3)c21 [Compound 12] |  |  |  | 9.82 | 
CN1C2=C(C(=O)Nc3ccccc3F)C(=O)CCN2c2cccc(-n3ccnc3)c21 [Compound 13, Pyrido[1,2-a]benzimidazole-4-carboxamide, N-2-fluorophenyl-1,2,3-trihydro-3-oxo5-methyl-6-(1-imidazolyl)-] |  |  |  | 9.89 | > 3 mg/kg
O=C1CCN2C(=C1C(=O)Nc1ccccc1F)Nc1c(N3CCSCC3)cccc12 [Compound 14] |  |  |  | 8.07 | ~3 mg/kg
CN1C2=C(C(=O)Nc3ccccc3F)C(=O)CCN2c2cccc(N3CCSCC3)c21 [Compound 15] |  |  |  | 9.64 | 1 mg/kg
CN1C2=C(C(=O)Nc3nccs3)C(=O)CCN2c2cccc(-n3ccnc3)c21 [Compound 16] |  |  |  | 8.67 | > 3 mg/kg
O=C1CCN2C(=C1C(=O)Nc1nccs1)Nc1c2cccc1-n1ccnc1 [Compound 17] |  |  |  | 6.80 | > 3 mg/kg
CN1C2=C(C(=O)Nc3ccccc3F)C(=O)CCN2c2cccc(N3CCCCC3)c21 [Compound 18] |  |  | 0.65 mg/kg | 9.66 | 0.03 to 0.1 mg/kg
O=C1CCN2C(=C1C(=O)Nc1ccccc1F)Nc1c(N3CCC4(CC3)OCCO4)cccc12 [Compound 20, Pyrido[1,2-a]benzimidazole-4-carboxamide, N-2-fluorophenyl-1,2,3,5-tetrahydro-3-oxo-6-[8-(1,4-dioxa-8-azaspiro[4,5]decanyl)]-] |  |  | 0.83 mg/kg | 8.95 | 3 mg/kg
CN1C2=C(C(=O)Nc3ccccc3F)C(=O)CCN2c2cccc(N3CCC4(CC3)OCCO4)c21 [Compound 21, Pyrido[1,2-a]benzimidazole-4-carboxamide, N-2-fluorophenyl-1,2,3-trihydro-3-oxo-5-methyl-6-[8-(1,4-dioxa-8-azaspiro[4,6]decanyl)]-] |  |  |  | 9.89 | ≤ 0.3 mg/kg
COCC(=O)N1CCN(c2cccc3c2N(C)C2=C(C(=O)Nc4ccccc4F)C(=O)CCN23)CC1 [Compound 22, Pyrido[1,2-a]benzimidazole-4-carboxamide, N-2-fluorophenyl-1,2,3-trihydro-3-oxo-5-methyl-6-[4-(2-methoxyacetyl)-1-piperazinyl]-] |  |  |  | 9.62 | > 3 mg/kg
O=C1CCN(c2cccc3c2NC2=C(C(=O)Nc4ccccc4F)C(=O)CCN23)CC1 [Compound 23] |  |  |  |  | ≤ 3 mg/kg
